Laboratory results taken from ChEMBL document CHEMBL3507680, “University of Dundee, Gates Library screen for HepG2 cell viability”.

Assay: Human HepG2 cell viability assay in 384 well format
Type: toxicity, cell-based
Design: dose 125 nL, time 70.5 hour; cytotoxicity at 70.5 h: concentration not given beside the values
Conditions: HepG2 cells, read-out: Inhibition

| SMILES | cytotoxicity at 70.5 h [%] |
| --- | --- |
| O=C(c1cccs1)N1CCC2(CC1)CCN(S(=O)(=O)C1CC1)CC2 | -11.7 |
| CCc1csc(C2CCCN(C(=O)c3ccc(OC)nc3)C2)n1 (stereo not drawn) | -1.94 |
| CCS(=O)(=O)NCC1OCCc2cn(CC3CCOCC3)nc21 (stereo not drawn) | 11.8 |
| Cc1cc(-c2cnc(C3CC3)nc2CN(C)C(=O)c2ccccn2)on1 | -2.22 |
| CC(C)c1ncc(S(C)(=O)=O)c(C2CCCNC2)n1 (stereo not drawn) | -7.47 |
| O=C1N(Cc2cccc(F)c2F)CCCC1(O)CNCc1ccccn1 (stereo not drawn) | -2.1 |
| COCc1ccc(C(=O)NS(=O)(=O)c2ccc3c(c2)CCC(=O)N3)cc1 | 17.1 |
| Cc1noc(C)c1C(=O)NCc1ccnc(OCC(F)(F)F)c1 | -0.701 |
| O=C(Nc1nc2c(s1)CN(S(=O)(=O)C1CC1)CC2)c1c(F)cccc1F | 3.16 |
| N#Cc1cccc(NC(=O)N2CCCC(N3CCCC3=O)C2)c1 (stereo not drawn) | 0.781 |
| CC(C)CC(Cc1cccc(Br)c1)C(=O)O (stereo not drawn) | 22.2 |
| CC(C)Nc1cccc(CC2CCN(S(C)(=O)=O)CC2)n1 | 19.5 |
| CCOC(C)c1noc(CN2CCNCC2)n1 (stereo not drawn) | 13.6 |
| CCC(CC)c1cc(CNC(=O)N2CCOCC2CC)on1 (stereo not drawn) | -10.6 |
| O=C1N(Cc2ccncc2)CCC12CCCN(c1ncc(F)cn1)C2 (stereo not drawn) | 14.6 |
| O=C(CSc1nncs1)N1CCN(Cc2ccc(Cl)s2)CC1 | -9.92 |
| Cc1noc(C2CCN(Cn3cc(Br)cn3)CC2)n1 | -8.17 |
| Cn1c(Nc2cn[nH]c2)c(C#N)c(=O)n(C)c1=O | 11.5 |
| C1CC(CN2CCCCC2C2OCCO2)C1 (stereo not drawn) | 3.56 |
| CC(=O)N1CCC2(CC1)CC(C(C)C)=NO2 | -9.06 |
| Cn1ccc(C(=O)N2CCC(c3cc(CCO)n(C)n3)C2)n1 (stereo not drawn) | -5.56 |
| Cc1nn(C)c2nc(N(Cc3ccccn3)CC3CCCO3)sc12 (stereo not drawn) | 17.1 |
| COc1ccccc1CNc1ccc2nncn2n1 | -11.2 |

| SMILES | cytotoxicity at 70.5 h [%] |
| --- | --- |
| Cc1cccc(CN2CC[C@@H]3O[C@@H](C(=O)N4CCN(C)CC4)C[C@@H]32)c1 | -6.66 |
| CCc1nc(C2CCCN2C(=O)c2csc(COC)n2)no1 (stereo not drawn) | -0.0198 |
| Cc1ccc(NC2(C(=O)NCc3c(C)n[nH]c3C)CCCC2)cc1 | -5.51 |
| O=C(NCCc1ccccc1)N1CCC(C2OCCO2)CC1 | -4.29 |
| COc1ccc(Cl)cc1NCC(=O)NCCc1ccccn1 | 5.95 |
| CCn1ncnc1C(C)NC(=O)C1CCN(C(C)C)CC1 (stereo not drawn) | -8.56 |
| COc1cccc2ccc(CN3CCN(c4ncccn4)CC3)nc12 | -5.87 |
| CN1CCOC(C)(C(=O)Nc2nccs2)C1 (stereo not drawn) | 40.2 |
| Cc1ccc(CN(C)C(=O)NCC(C)(C)CCS(C)(=O)=O)s1 | -1.02 |
| COc1cc(C2(C(=O)NC3CCN(C4CC4)CC3)CC2)ccc1C | -4.2 |
| Cc1nc(C)n(CC2CCCN(Cc3ncc(C(C)(C)C)o3)C2)n1 (stereo not drawn) | 23 |
| Cn1ncc(Cl)c1C(=O)N1CCc2nc3sccc3c(=O)n2CC1 | 33.8 |
| CN1CCN([C@@H]2CCN(Cc3cccc(-n4cccn4)c3)C[C@H]2O)CC1 | 2.97 |
| OCCN1CCOC2(CCCN(c3ncccn3)C2)C1 (stereo not drawn) | -2.47 |
| Cc1nn(C)c(C)c1CCC(=O)NCC1(C(N)=O)CCOCC1 | -17.6 |
| Cc1cc(C2CCC2)nc(N(C)Cc2cc(-c3ccccn3)no2)n1 | -6.04 |
| COCc1noc(-c2ccc(N3CCC[C@H]3CO)nc2)n1 | -7.06 |
| COc1ccc(C2Nc3cc(Cl)ccc3C3=NCCN32)cc1CO (stereo not drawn) | 9.73 |
| CN(C)C(=O)Cc1ccc(NC(=O)NC2CC2)cc1 | -3.59 |
| CCOCCSc1nnc(-c2cn(CC)nc2OCC)n1C | -7.58 |
| Cc1cc(C(=O)N2CCCN(Cc3nccn3C)CC2)no1 | 12.6 |
| CN(C)C(C)(C)CNCc1cn(C)nc1-c1cccnc1 | 17.8 |
| Cc1noc([C@@]23CCO[C@@H]2CCN(C(=O)C2CCOCC2)C3)n1 | 4.56 |

| SMILES | cytotoxicity at 70.5 h [%] |
| --- | --- |
| COc1ccnc(CNc2nc(C)nc3ccsc23)c1 | 3.18 |
| C=Cn1ncc(CN2C[C@@H]3C[C@@H](O)CN3C[C@H]2Cc2ccccc2)c1C | -5.5 |
| CC(C)c1n[nH]c(C2CN(C(=O)c3csnn3)CCO2)n1 (stereo not drawn) | -3.07 |
| Cc1ccccc1CNC(=O)c1ccccc1-n1cnc(CN)c1 | -0.745 |
| CCNC(=O)C1(Cc2ccc(-c3ccccc3)cc2)CCCNC1 (stereo not drawn) | 4.78 |
| Cc1nc(N2CC[C@@H](NC(=O)c3cnccn3)[C@H](O)C2)c2ccsc2n1 | -3.33 |
| O=C(CN1CCCS1(=O)=O)Nc1ccc(OC2CCCC2)c(Cl)c1 | -0.366 |
| COc1cccc(N2CCN(C(=O)C(O)c3cccc(Cl)c3)CC2=O)c1 (stereo not drawn) | 6.54 |
| CC(C)(CO)NCc1nn(Cc2ccccc2)nc1-c1ccccc1 | 27.2 |
| CS(=O)(=O)c1cn[nH]c1C1CCCCN1C(=O)c1cnccn1 (stereo not drawn) | -5.18 |
| N#CC1(NC(=O)Cc2cc(Cl)c3c(c2)OCCO3)CCC1 | -10.5 |
| CC(=O)N1CCCN(C(=O)Cc2c(C)nc(C)[nH]c2=O)CC1 | -0.651 |
| COCCN(Cc1nccs1)C(=O)c1cc(-c2ccc(C)o2)n[nH]1 | -11.2 |
| CN(Cc1ccncc1)C(=O)Nc1cnn(CC(N)=O)c1 | -4.03 |
| CCC(C)CNCC1(S(C)(=O)=O)CCOCC1 (stereo not drawn) | -1.98 |
| COc1nn(C)cc1C(=O)N1CCC(c2nnc(C(C)C)o2)CC1 | -4.14 |
| CCOCCn1nc(C)cc1C(=O)N1C[C@@H](C)[C@](O)(C2CC2)C1 | -2.07 |
| Cc1ccc(S(=O)(=O)Nc2ccc(-n3ccnc3C)nc2)cc1N(C)C | -2.22 |
| c1cnc(N2CC3(CCN(C4CCOCC4)CC3)c3ccccc32)nc1 | -0.647 |
| CC(C)c1ocnc1C(=O)NC(c1nnc2n1CCNCC2)C(C)C (stereo not drawn) | -16.6 |
| COCCN1CCC(CNC(=O)c2ccnc(-n3ccnc3)c2)CC1 | -0.309 |
| O=C(NCC1CC1)[C@H]1C[C@@H]2[C@@H](C1)OCCN2Cc1cccnc1 | 25 |
| CN1CCN(CC2CC2)C(=O)c2cnc(N3CCOCC3)nc21 | -3.35 |

| SMILES | cytotoxicity at 70.5 h [%] |
| --- | --- |
| Cc1cc(C)nc(C2CCN(c3ccncn3)C2)n1 (stereo not drawn) | -2.27 |
| CCN1CCN(C[C@@H]2CN(c3ncc(Cl)cc3Cl)C[C@@H]2CO)CC1 | -6.63 |
| CCC(=O)NC1CCCN(Cc2ccc(NC(C)=O)cc2)C1 (stereo not drawn) | -4.65 |
| CNC(=O)CCS(=O)(=O)Cc1cc(Cl)c2c(c1)OCCO2 | -3.97 |
| O=C(CN1CCC(c2ccnn2CCO)CC1)NCC1CC1 | 10.7 |
| Cc1cnc(N2CCC3(CCCN(c4ncc(F)cn4)C3)C2)nc1 (stereo not drawn) | -5.99 |
| CN1CCN(C2CCN(Cc3ccc(Cl)cc3)CC2)C1=O | -2.16 |
| Cc1cccc(CNC(=O)Nc2cc(C(F)(F)F)c[nH]c2=O)n1 | -6.24 |
| O=S(=O)(c1ccc2c(c1)OCCO2)N1CCc2ccccc2C1 | -7.73 |
| COc1c(CNCc2nnc3n2CCCCC3)c(C)nn1C | -6.68 |
| O=C(c1ccn(-c2cccc(Cl)c2)n1)N1CCN(C2CC2)CC1 | -0.559 |
| Cn1cnc(S(=O)(=O)NCCN2CCCCCC2=O)c1Cl | 14.4 |
| Cn1cc(CN2CCCn3cnc(COCc4ccco4)c3C2)cn1 | 3.06 |
| CC(=O)N1N=C(c2cccs2)OC1C(=O)Nc1ccc(C(C)C)cc1 (stereo not drawn) | -2.48 |
| Cc1nc(CN2CCOCC23CCN(c2ccc(C#N)cc2)CC3)cs1 | -2.38 |
| Cc1nc(N2CCN(C(=O)c3ccccn3)CC2)c2c(n1)c(C)nn2C | -8.87 |
| Cc1cccc(CN2CCCC(O)(CNCc3ncccc3C)C2=O)c1 (stereo not drawn) | -7.55 |
| N#Cc1cccc(CN(CCO)Cc2ccsc2)c1 | -20.4 |
| COCCN1C[C@H]2CCC[C@@H](CNc3ncccn3)[C@H]2C1 | -10.7 |
| O=C(CCN1CCCO1)N1CC[C@@H](c2ccc3ccccc3c2)[C@H](O)C1 | 0.165 |
| COc1ccc(CNCC2CN(C3CC3)CCO2)cc1F (stereo not drawn) | -8.08 |
| O=C(c1cnccn1)N1CCCC(c2cccc(-n3ccnc3)n2)C1 (stereo not drawn) | 11.1 |
| CCCc1nc(C)c(C(=O)NS(=O)(=O)c2cccnc2)s1 | -0.303 |

| SMILES | cytotoxicity at 70.5 h [%] |
| --- | --- |
| Cn1ncc2c1CCCC2NCc1cccnc1 (stereo not drawn) | -18.9 |
| COCCNC(=O)Nc1ccc(CN2CCOC2=O)cc1 | -7 |
| O=C(O)C1CCN(C[C@H]2CC[C@@H](Cc3ccc4c(c3)OCO4)O2)CC1 | 8.69 |
| CC(C)N1CCO[C@H]2CN(Cc3cc[nH]n3)C[C@H]21 | -5.26 |
| CCn1c(C)nc2cc(NC(=O)C3CN(C(C)=O)C3)ccc21 | -5.1 |
| CCOCc1cnc2n1CCN(C(=O)c1cn(C)c3ccccc13)C2C (stereo not drawn) | 8.97 |
| O=S(=O)(c1ccccc1)N1C[C@@H]2COC[C@]2(COCC2CC2)C1 | 1.08 |
| Cn1cc(C(=O)N2CC[C@@H]3[C@@H]2CCN3Cc2cccc(F)c2)cn1 | -6.38 |
| COc1cccc(-c2nc(CNCCCn3cccn3)cs2)c1 | -3.21 |
| CCc1noc(-c2cccc(NC(=O)C(C)(C)C)c2)n1 | -11.2 |
| CN(Cc1nc2c(cnn2C)c(=O)[nH]1)Cc1ccccc1Cl | -4.36 |
| CC(C)c1nnc(NC(=O)NCc2ccc(CO)c(F)c2)s1 | -13.4 |
| CCOCC(=O)N1CCC(C2CCN(Cc3ccc(Cl)cc3)C2)CC1 (stereo not drawn) | -2.4 |
| Cc1cc(C(=O)N2C[C@H](c3ccccc3)[C@@H](N)C2)c2ccc(F)cc2n1 | -12.1 |
| CC(C)(C)OCCN(Cc1cccc(O)c1)C1CCC(O)CC1 (stereo not drawn) | -3.74 |
| COCC(=O)N1CCC2(CC1)CN(CC1CC1)c1ccc(F)cc12 | 2.37 |
| Cc1cc(C(=O)NC2CCc3c(ccc(=O)n3CC(C)C)C2)no1 (stereo not drawn) | -4.48 |
| CC(C)Oc1ccc(CC2=N[C@](C)(CO)CO2)cc1 | 21.4 |
| CC(C)CNC(=O)c1ccc2nnc(C3CCN(S(C)(=O)=O)C3)n2c1 (stereo not drawn) | -19.7 |
| CCc1nnc2ccc(N3CCN(S(=O)(=O)c4ccc(C)s4)CC3)nn12 | -21.3 |
| CO[C@H]1CCN(S(=O)(=O)c2cn(C)cn2)[C@H]1Cc1cnn(C)c1 | -14.3 |
